Laboratory results reported in US20160038526A1, “TREATMENT OF PROSTATE CANCER” (THOMAS JEFFERSON UNIVERSITY, priority 2012, published 2016).
Entries after “also recorded” stand apart in the source; their conditions may differ.

Tests used:
[1] = system: human clinical prostate cancer explants; assay: Clinical prostate cancers ex vivo in explant organ cultures: viability of epithelium; format: cell-based; conditions: eight patients, 7 days, N6BAP 5, 10, 25, 50 and 100 μM
Excerpt: For organ cultures, prostate cancer specimens were obtained during surgery from eight patients with localized or locally advanced prostate cancer undergoing radical prostatectomy and bilateral iliac lymphadenectomy. The specimens are identified in Table 1.
The specimens comprised de-identified excess tissue obtained after the completion of pathology diagnosis. A zero-sample prior to organ culture was formalin-fixed for each individual prostate cancer for the analysis of the nuclear Stat5a/b status. The prostate organ cultures were performed as described earlier (Ahonen et al., Endocrinology (2002), 143:228-238). Briefly, prostate cancer tissue was cut into approximately 1 mm^3 pieces in a plain culture medium and transferred onto lens papers lying on stainless steel grids in petri dishes. […] Tissue explants were cultured in a medium containing the N6BAP or control compound C5 at indicated concentrations (C5: […]; N6BAP: 5, 10, 25, 50 and 100 μM) 7 days, after which the explants were fixed in formalin and analyzed for Stat5a/b activation and viability of prostate cancer epithelial compartment. Viability of the epithelial cells in the prostate cancer explants at the end of the cultures were scored by counting the viable epithelial cells per explant.

Stat5a = target: T1, Stat5a (Homo sapiens, UniProt P42229); assay: Stat5a transcriptional activity, β-casein promoter luciferase reporter gene assay in PC-3 cells; format: cell-based; design: expressed in transfected cells; host or cells: PC-3 (human prostate cancer cell line); conditions: 1 hour pretreatment, 10 nM hPrl for 16 hours
T1 sequence (P42229 1-794): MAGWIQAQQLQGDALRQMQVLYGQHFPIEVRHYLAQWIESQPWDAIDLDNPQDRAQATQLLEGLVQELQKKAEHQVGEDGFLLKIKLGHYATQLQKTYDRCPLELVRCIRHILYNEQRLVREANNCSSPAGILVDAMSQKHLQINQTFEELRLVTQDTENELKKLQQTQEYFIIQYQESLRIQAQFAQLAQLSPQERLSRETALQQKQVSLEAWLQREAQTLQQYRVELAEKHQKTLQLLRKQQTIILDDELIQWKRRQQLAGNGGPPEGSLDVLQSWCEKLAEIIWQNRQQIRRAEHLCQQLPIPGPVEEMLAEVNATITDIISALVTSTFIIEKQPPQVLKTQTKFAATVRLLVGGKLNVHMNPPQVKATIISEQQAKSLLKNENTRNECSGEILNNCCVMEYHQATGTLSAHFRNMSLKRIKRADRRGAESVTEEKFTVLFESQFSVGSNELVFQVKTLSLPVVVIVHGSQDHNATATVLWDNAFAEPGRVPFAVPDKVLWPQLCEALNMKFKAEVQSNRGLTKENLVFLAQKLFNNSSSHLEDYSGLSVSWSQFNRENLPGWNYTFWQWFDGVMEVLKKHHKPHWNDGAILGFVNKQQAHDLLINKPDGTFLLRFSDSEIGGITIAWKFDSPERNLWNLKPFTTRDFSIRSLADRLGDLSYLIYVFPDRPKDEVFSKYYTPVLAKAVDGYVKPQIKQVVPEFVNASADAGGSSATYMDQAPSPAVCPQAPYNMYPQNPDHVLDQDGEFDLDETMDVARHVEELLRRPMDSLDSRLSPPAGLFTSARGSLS
Method: Cells of the human prostate cell line PC-3 were plated into 96-well plate at the density of 2×10^5 per well. After 24 hours of plating, cells were transiently co-transfected using FuGENE6 (Roche) with 0.25 μg of each of pStat5a or pStat5b, pPrlR (prolactin receptor) plasmids, 0.5 μg of pBeta-casein-luc and 0.025 μg of pRL-TK (Renilla luciferase) plasmids as an internal control. After another 24 hours of transfection, the cells were starved in serum-free medium for 8 hours, pretreated with N^6-benzyladenosine-5′-monophosphate (“N6BAP”), or one of five control compounds (designated “C3” through “C7”) of similar molecular weight but unrelated chemical structure to N6BAP), for 1 hour, and then stimulated with 10 nM human prolactin (hPrl) in the serum-free medium for additional 16 hours. The lysates were assayed for firefly and Renilla luciferase activities using the Dual-Luciferase reporter assay system (Promega). Three independent experiments were carried out in triplicate. The firefly luciferase activity was normalized to the Renilla luciferase activity of the same sample, and the mean was calculated from the parallels. From the mean values of each independent run, the overall mean and its standard deviation (S.D.) were calculated.

With `O=P(O)(O)OC[C@H]1O[C@@H](n2cnc3c(NCc4ccccc4)ncnc32)[C@H](O)[C@@H]1O` [N6BAP, N^6-benzyladenosine-5′-monophosphate] the “viability of prostate cancer epithelium in explant organ cultures” value [1] was “induced extensive death of prostate cancer epithelium” and the “transcriptional activity of Stat5a on the β-casein gene promoter” value (Stat5a) was “inhibited Stat5a and Stat5b transcriptional activity in a concentration-dependent manner; also recorded: effectively blocks the transcriptional activity”.
